The subject of experiment [1] is previously untreated, poor-risk acute myeloid leukemia (AML). Put plainly: Phase 2 study of tipifarnib in older adults with previously untreated, poor-risk AML: clinical response and overall survival. The class given is in vivo, human. The source says:
The current study utilized 67 bone marrow samples collected from an open label, multicenter, non-comparative phase 2 study investigating the efficacy and safety of farnesyltransferase inhibition with tipifarnib (R115777, ZARNESTRA®) in 158 older adults with previously untreated, poor-risk AML. The clinical results have been published elsewhere. Lancet et al. (2006).
Lancet et al. (2006). Briefly, HI was defined as any bone marrow blast count less than 5% or a reduction in bone marrow blasts by at least half. Progressive disease (PD) was defined as either >50% increase in bone marrow or circulating blast % from baseline, or new appearance of circulating blasts (on at least 2 consecutive occasions). Stable disease (SD) was defined as any response not meeting CR, PR, HI, or PD criteria.
This study examined gene expression profiles of leukemic bone marrow samples from patients enrolled in a Phase 2 clinical trial of the farnesyltransferase inhibitor tipifarnib in elderly patients with previously untreated poor-risk acute myelogenous leukemia. Lancet et al. (2006). Bone marrow from 67 patients was collected before treatment with tipifarnib and leukemic myeloid cells were enriched by Ficoll-density centrifugation (Table 1). Good quality total RNA from 13 responders (9 CR, 4 HI), 8 stable disease and 13 progressive disease patients was amplified, labeled, and hybridized to the Affymetrix U133A GeneChip. A total of 30 samples were evaluated by qPCR for validation of specific genes and 32 samples were evaluated for N-Ras mutational status.

The test system of experiment [2] is relapsed or refractory AML. Description: Independent set of 54 relapsed/refractory AML patients treated with tipifarnib. In kind it is in vivo, human. As to conditions: for difference in overall survival between predicted responders and progressors: relapsed/refractory AML. The text has this: We next performed external validation of the TSP classifier in an independent microarray dataset comprising of 54 relapsed/refractory AML patient samples. 20070048782. Importantly, a diagnostic assay that aims to predict response to a cancer therapy should have a high sensitivity (and negative predictive value) since it is important to capture as many potential responders as possible. Therefore, to define an appropriate cutoff for testing the TSP classifier we considered the need to obtain a high sensitivity of predicting responders while maintaining an acceptable level of specificity. In the training set, the level of specificity that could be achieved ranged from approximately 30% to 100% when the sensitivity was set at 100% to 80%, respectively. To ensure the classifier would predict as many responders as possible we tested a conservative cutoff that provided a specificity of approximately 60% in the training set. When this cutoff was applied to the independent testing set of relapsed/refractory AML, the RASGRP1:APTX gene classifier stratified responders with 92% NPV and 27.6% PPV (compared to 18.5% prevalence) (FIG. 3C). The associated odds ratio for being a responder was 4.38.
In the absence of a larger independent set of newly diagnosed AML samples we also utilized 54 relapsed or refractory AML samples from our previous investigation as an independent testing set (20070048782). […] Since the prevalence of responders in that dataset was 18% this represents an improvement of overall response of approximately 50%. […] Importantly we found no association with the two-gene classifier and patient prognosis in an independent set of AML patients who were treated with chemotherapeutics. […] Further work needs to be done to clarify whether the RASGRP1:APTX expression ratio has utility for other classes of FTIs.

[3] abbreviates: Kaplan Meier, RASGRP1 gene classifier, newly diagnosed AML (FIG. 1B).
[4] abbreviates: RASGRP1:APTX qPCR classifier, cut-point 0, 30 newly diagnosed AML samples.

This is an account of results in patent publication US7932036B1, “Methods of determining acute myeloid leukemia response to treatment with farnesyltransferase” (Veridex, LLC, priority 2008, dated 2011).

As for `Cn1cncc1[C@@](N)(c1ccc(Cl)cc1)c1ccc2c(c1)c(-c1cccc(Cl)c1)cc(=O)n2C` [tipifarnib], in experiment [1] (setting [3]), the “median overall survival of the responders” value stood at 386 days and the “median overall survival of those with progressive disease” value was determined as 68 days. In addition, in experiment [1] (setting [4]), the “median overall survival of the predicted resistant patients” value was 82 days and the “median overall survival of those classified as responders” value worked out at 295 days. Also, in experiment [1] (RASGRP1:APTX top scoring pair, training set, newly diagnosed AML), the “difference in overall survival between predicted responders and non-responders” value is 357 days. This compound also gave a prevalence of responders in experiment [2] (54 relapsed/refractory AML patient samples) of 18%. Also, the “difference in overall survival between predicted responders and progressors” value in experiment [2] (RASGRP1:APTX TSP classifier) is reported as 98 days. Besides, in experiment [2] (RASGRP1 alone), the “difference in overall survival between predicted responders and progressors” value is reported as 56 days. Besides, the “median overall survival of predicted responders versus patients predicted to be resistant” value in experiment [2] (two-gene classifier, relapsed or refractory AML) is given as “approximately 3 fold”.
